{"source": "patent US8129327B2", "about": "“Packaging for high moisture bar soap” (The Procter & Gamble Company, priority 2006, dated 2012)", "key": {"penicillium chrysogenum": {"tested_on": "penicillium chrysogenum", "assay": "inhibition of mold growth on paperboard package containing high moisture bar soap", "conditions": "fungicide-treated paperboard package containing high moisture bar soap", "excerpt": "(§1) The present invention further relates to a method of inhibiting the growth of mold, especially certain species of mold such as aspergillus sydowii and/or penicillium chrysogenum, that can grow on a paperboard package containing a high moisture bar soap composition.\n(§2) Such a fungicide material is commercially available from Intace S.A. under the tradename INTACE B-6773."}, "aspergillus sydowii": {"tested_on": "aspergillus sydowii", "assay": "inhibition of mold growth on paperboard package containing high moisture bar soap", "conditions": "fungicide-treated paperboard package containing high moisture bar soap", "excerpt": "as §1, §2"}}, "data": [{"compound": "COC(=O)Nc1nc2ccccc2[nH]1", "note": "[carbendazim]", "values": [{"measurement": "inhibition of the growth of mold on paperboard packaging", "setting": "penicillium chrysogenum", "value": "typically resistant"}, {"measurement": "inhibition of the growth of mold on paperboard packaging", "setting": "aspergillus sydowii", "value": "typically resistant"}]}]}
